Reference: patent US20090179638A1, “ASSAY FOR IDENTIFYING INHIBITORS OF NEURONAL APOPTOTIC PATHWAYS” (AEGERA THERAPEUTICS INC., priority 2006, published 2009)
“Also recorded” adds a separate entry of the source.

What was measured:
HSP90 [1] = test: Photoaffinity-biotin labelling of PC12 protein extracts; assay type: binding; conditions: 2 uM, 3 hours, UV 30 minutes, approximately 90 kDal band
Protocol: HSP90 was also identified using the photoaffinity-biotinylated probe, compound 7. PC12 protein extracts were separated by SDS page. SDS was removed by incubation in 20% isopropanol and proteins were renatured by incubation in DTT and guanidine HCl. The gel was then incubated for 3 hours with 2 uM compound 7 and then photoactivated for 30 minutes using a UV crosslinker. Proteins were then transferred to nitrocellulose and biotin was detected with HRP-conjugated strepavidin.

HSP90 [2] = test: ATP-Sepharose interaction assay; assay type: binding; conditions: purified HSP90 pre-incubated with substance
Protocol: Bound HSP90 was eluted HSP90 content was determined by immunoblotting.
ATP-Sepharose Interaction Assays. These were performed essentially as described in (Grenert et al., 1997). […] 25 ul of ATP-sepharose beads were added and the reactions were incubated for 30 min at 30° C. After thorough washing with ice-cold incubation buffer, bound proteins were eluted in sample buffer and HSP90 content was determined by immunoblotting.

HSP90 protein = test: STD 1H NMR spectroscopy binding to HSP90; conditions: compound to protein ratio approximately 100:1, 20 mM sodium phosphate buffer pH 6.7
Protocol: (§1) FIG. 9 is a STD 1H NMR Spectrum of Compound 1 and 20 with HSP90 protein. STD NMR experiments were performed at 19° C. on a Varian INNOVA 500 MHz spectrometer equipped with a triple resonance HCN cold probe. A 1D saturation transfer difference pulse sequence with internal subtraction via phase cycling was employed. Residual HDO signal was removed using a W5 WATERGATE pulse sequence, with a […] interpulse delay. On resonance irradiation of the protein was performed at −0.5 ppm, with off-resonance irradiation at 34 ppm. The irradiation power was (g/2p)B1=93 Hz applied through a train of 50 ms eburp1 pulses with a 1 ms delay between the pulses. The total presaturation time was 5.1 s. The relaxation delay was set to 0.1 s. A 30 ms spin-lock pulse with a strength of (g/2p)B1=4600 Hz was used to eliminate background protein signals. The total number of scans was between 1536, with a sweep width of 16 ppm. Spectra were multiplied by a 1 Hz exponential line-broadening function prior to Fourier transform. Compounds 1 (85 uM) and 20 (85 uM) and HSP90 protein (0.85 uM) in 20 mM sodium phosphate buffer (pH 6.7) was used. A) STD 1H NMR spectrum, B) preset reference, and C) STD reference-no saturation/difference.
as §1, with “STD” for “FIG. 9 is a STD 1H NMR Spectrum of Compound 1 and 20 with HSP90 protein. STD”, “employed (Mayer and Meyer, JACS, 2001, 123, 6108-6117).” for “employed.”, “delay (Liu et. al, J. Magn. Res., 1998, 132, 125).” for “delay.”, “1536-2048,” for “1536,”, “transform.” for “transform. Compounds 1 (85 uM) and 20 (85 uM) and HSP90 protein (0.85 uM) in 20 mM sodium phosphate buffer (pH 6.7) was used. A) STD 1H NMR spectrum, B) preset reference, and C) STD reference-no saturation/difference.”
The compound to protein ratio was fixed at approximately 100:1 in 20 mM sodium phosphate buffer (pH 6.7). Compound 20 was used as a reference compound to compare binding affinities of various compounds to HSP90 by comparing the relative intensity of NOE effects in the spectra of compounds 1 and 20 (see FIG. 9), compounds 2 and 20, compounds 5 and 20, compounds 13 and 20, and compounds 15 and 20 (near equamolar quantities of each) in the presence of HSP90 protein. Using the NOE signals for the imidazole proton, and comparing peak heights, the relative kd of the compound pairs were compared (see Meyer and Peters, T. Angew. Chem. Int. Ed. 2003, 42, 864). The kds of the compound pairs ranged from 1:1 to 8:1. These differences in binding affinities correlated to the potency of each respective compound's ability to rescue SCG neurons from NGF withdrawal as previously reported.

HSP70 = test: HSP protein expression in PC12 / PC12rtTA cells (immunoblot); assay type: cell-based; conditions: PC12rtTA cells infected with AdNRG, Adp75 or AdLacZ, 30 hours (FIG. 6A)
Protocol: FIGS. 4A-4C are photographs of Western blots which illustrate that compound 1 treatment of PC12 cells induces expression of HSP70. A: PC12 cells were infected with 5 MOI of AdNRG (NRG) or AdLacZ (LacZ) as indicated. Cells were left untreated (0) or treated with 40 μM compound 1 at time of infection (30), one hour before lysis (1), or at both times (30+1). Cells were lysed thirty hours after infection, normalized for protein content, and analyzed for levels of phospho-Ser^63 c-Jun and total c-Jun, total JNK, IkBα, and NRAGE by immunoblotting. Lysates from untreated cells are indicated by ‘−’. B: PC12 cells were treated with the indicated concentrations of compound 1 for 18 hours and then lysed, normalized for protein content, and analyzed for levels of HSP70 by immunoblotting. Lysates from untreated cells are indicated by ‘−’. C: RNA isolated from PC12^rtTA cells treated with increasing concentrations of compound 1 for 18 hours was analyzed by rtPCR using primers specific to HSP70, HSP25, HSP90 or actin, as indicated. Experiments in Panel A and B were performed three times and that in Panel C was performed twice, with essentially identical results. D: PC12^rtTA cells were infected with AdNRG at 5 MOI, Adp75 at 50 MOI, or the control virus AdLacZ at 50 MOI. At time of infection, the cells were treated with increasing concentrations of compound 1, or with vehicle alone, as indicated. Thirty hours after infection, cells were lysed, normalized for protein content, and analyzed for levels of c-Jun phosphorylation, HSP70, HSP25, HSP40, NRAGE, p75NTR, JNK-1 and IkBα, as indicated.
FIGS. 6A, 6B and 6C are graphs and photographs of Western blots which illustrate that compound 1 analogues inhibit JNK activation and induce expression of HSP70. A: PC12^rtTA cells were infected with 5 MOI of AdNRG, 50 MOI of Adp75 or 50 MOI of the control virus AdLacZ. At time of infection, the cells were treated with an increasing concentrations of compound 1, or its analogues, compound 2, compound 3, compound 4, or with vehicle alone, as indicated. Thirty hours after infection, cells were lysed, normalized for protein levels, and analyzed for levels of HSP70, HSP25 and JNK-1, as indicated. B: PC12^rtTA cells were treated as above and after 40 hours infection were assayed for death using the lactate dehydrogenase (LDH) assay. Results are normalized relative to those obtained with 1% Triton, and represent the mean±standard deviation of a representative experiment performed in triplicate (*=P<0.025 relative to ‘0’ for each compound concentration). C: PC12^rtTA cells were infected with 50 MOI of LacZ or 5 MOI of AdNRG50 and at the time of infection, were treated with 40 μM compound 1, or its analogues, compound 2, compound 3, compound 4, or with vehicle alone, as indicated. Thirty hours after infection, cells were lysed, normalized for protein levels, and were analyzed for phosphorylated c-Jun, total c-Jun, NRAGE and JNK-1, as indicated. Experiments in Panel A and C were performed twice and that in B were performed twice, with essentially identical results.
To address this, SCG neurons were treated with compound 1 for 18 hours then lysed and assessed for HSP70 levels by immunoblot. Uninfected PC12rtTA cells were treated in a similar manner. […] To test if the accumulation of HSP70 induced by compound 1 reflected increased steady state levels of its mRNA, RNA was isolated from PC12 cells treated with increasing concentrations of compound 1 for 18 hours and the cell lysates subjected to semi-quantitative rtPCR. […] HSP protein levels were also assessed in PC12rtTA cells infected with AdLacZ, Adp75, or AdNRG, and at the same time, exposed to compound 1.

PC12^rtTA cells = test: p75NTR- or NRAGE-induced cell death of PC12rtTA cells (LDH release assay); assay type: cell-based; conditions: increasing concentrations, 40 hours, LDH
Protocol: FIGS. 2A and 2B are graphs showing that compound 1 inhibits p75NTR or NRAGE induced JNK activation and cell death. Compound 1 inhibits NRAGE (A) or p75NTR (B) mediated cell death. PC12^rtTA cells were infected with recombinant adenoviruses expressing full-length NRAGE (AdNRG) at 5 MOI, full length p75NTR (Adp75) at 50 or 100 MOI, or the control protein β-galactosidase (AdLacZ) (at 5 MOI in (A) and 50 MOI in (B)). At time of infection, the cells were treated with an increasing concentration of compound 1, or with vehicle alone, as indicated. After 40 hours, cells were assayed for death using the lactate dehydrogenase (LDH) assay; untreated cells (Un) and cells treated with 1% Triton X-100 (Tx) were used to delineate the output range of the assay. Results are normalized relative to those obtained with 1% Triton (Tx), and represent the mean±standard deviation of a representative experiment performed in triplicate (*=P<0.005 relative to no compound 1).
PC12^rtTA were infected with adenoviruses encoding p75NTR (Adp75), NRAGE (AdNRG), or as a control, LacZ (AdLacZ), and were concurrently exposed to increasing concentrations of compound 1 for a period of 40 hours. Cell death was assessed using an LDH release assay. […] Treatment with 40 μM compound 1 reduced p75NTR- or NRAGE-induced cell death by greater than 90%.
(§2) Cell culture, infection, transfection and immunoblotting. Sympathetic neurons were maintained and deprived of NGF as previously described (Bamji et al., 1998; Ma et al., 1992). PC12^rtTA cells were maintained and infected as previously described (Majdan et al., 1997; Salehi et al., 2002); for NRAGE, […] doxycycline was added to all plates at time of infection. Wildtype and HSF1 nullizygous immortalized mouse embryonic fibroblasts (MEFs) were maintained in DMEM containing 10% fetal calf serum, 1 μM β-mercaptoethanol, 1% non-essential amino acids, 1% L-glutamine, 1% antimycotic solution and 1% sodium pyruvate (all from GibcoBRL). Sympathetic neuron survival was assessed using the MTS assay according to the manufacturer's instructions (Promega). Analysis of PC12 cell death was determined using a lactate dehydrogenase (LDH) assay (Roche) as per the manufacturer's instructions. Transfections using plasmids or RNAi were performed using Lipofectamine 2000. Immunoblotting was performed as previously described (Majdan et al., 1997; Salehi et al., 2002).

SCG neurons = test: NGF-withdrawal induced cell death of SCG neurons (MTS assay); assay type: cell-based, rat; conditions: SCG neurons withdrawn from NGF, 48 hours
Protocol: FIG. 1 is a graph showing that compound 1 inhibits NGF-withdrawal induced cell death. Cultures of rat SCG neurons (see Materials and Methods) initially maintained in 10 ng/ml of NGF were withdrawn from NGF and maintained in media containing compound 1 at the concentrations indicated for 48 hours. Cellular viability was assayed using an MTS assay. (*=P<0.01 relative to no compound 1). Experiments were performed three times with identical results.
Survival of neonatal primary sympathetic neurons is dependent on trophic support provided by Neuronal Growth Factor (NGF) (reviewed in (Young et al., 2004)).
as §2

[3] = full body radiography
Protocol: The induction of HSP70 was investigated in vivo by the treatment of rats with a single dose of Na-19 (SC, 30 mg/kg).

[N-]=[N+]=Nc1c(F)c(F)c(-c2cn3nc(S(=O)(=O)CCNC(=O)CCCCC4SC[C@H]5NC(=O)N[C@@H]45)sc3n2)c(F)c1F (some centres unmarked) [Compound 7]
photoaffinity labelled band (HSP90 [1]): consistent with binding to HSP90

Nc1ncnc2c1ncn2[C@@H]1O[C@H](COP(=O)(O)OP(=O)(O)OP(=O)(O)O)[C@@H](O)[C@H]1O [ATP, reference compound]
binding of HSP90 to gATP-Sepharose (HSP90 [2]): strongly inhibited

COCCOCCOc1ccc(-c2cn3nc(S(N)(=O)=O)sc3n2)cc1 [Compound 13]
binding to HSP90 protein by STD 1H NMR (HSP90 protein): directly bind

CC(=O)N1CCN(CC[S+]([O-])c2nn3cc(-c4ccccc4)nc3s2)CC1 (centres unmarked) [Compound 20]
binding to HSP90 protein by STD 1H NMR (HSP90 protein): Positive; also recorded: directly bind

NS(=O)(=O)c1nn2cc(-c3ccc(NC(=O)c4ccccc4)cc3)nc2s1 [Compound 4]
HSP70 production (HSP70): failed to induce HSP70
protection from Adp75- or AdNRG-induced cell death (PC12^rtTA cells): do not protect
protection from NGF-withdrawal induced cell death (SCG neurons): do not protect

NS(=O)(=O)c1nn2cc(-c3ccc(OCC(=O)O)cc3)nc2s1 [Compound 3]
HSP70 production (HSP70): failed to induce HSP70
protection from Adp75- or AdNRG-induced cell death (PC12^rtTA cells): do not protect
protection from NGF-withdrawal induced cell death (SCG neurons): do not protect

[NH-]S(=O)(=O)c1nn2[14cH]c(-c3ccc(-c4cccc(C(F)(F)F)c4)cc3)nc2s1.[Na+] [[^14C]—Na-19, [5-^14C]-6-(3′-(trifluoromethyl)biphenyl-4-yl)imidazo[2,1-b]-1,3,4-thiadiazole-2-sulfonamide Mono Sodium Salt]
radioactivity in sciatic nerve [3]: significant, time dependent, radioactivity in sciatic nerve

NS(=O)(=O)c1nn2cc(-c3ccc4c(c3)OCCCO4)nc2s1 [Compound 12]
binding to HSP90 protein by STD 1H NMR (HSP90 protein): directly bind

NS(=O)(=O)c1nn2cc(-c3ccc(O)cc3)nc2s1 [Compound 5]
binding to HSP90 protein by STD 1H NMR (HSP90 protein): directly bind

CC(C)(C)c1ccc(-c2cn3nc(S(N)(=O)=O)sc3n2)cc1 [Compound 15]
binding to HSP90 protein by STD 1H NMR (HSP90 protein): directly bind
